Measured values taken from patent US8809361B2, “2,3-dihydrofuro[2,3-c]pyridines, their use as modulators of the G-protein-coupled receptor GPR119 and pharmaceutical compositions thereof” (Boehringer Ingelheim International GmbH, priority 2012, dated 2014).
pEC50: −log10 of the molar value.

What follows are molecules tested against T1, human GPR119 (Homo sapiens, UniProt Q8TDV5) (assay: GPR119 activation / intracellular cAMP stimulation, AlphaScreen cAMP Assay in Min-6/hGPR119 cells). Conditions: MIN6 cells stably transfected with human GPR119, 45 minutes incubation at room temperature.
T1 construct: expression vector for human GPR119 cDNA (Acc. No. NP_848566); expressed in transfected cells
T1 sequence (Q8TDV5 1-335): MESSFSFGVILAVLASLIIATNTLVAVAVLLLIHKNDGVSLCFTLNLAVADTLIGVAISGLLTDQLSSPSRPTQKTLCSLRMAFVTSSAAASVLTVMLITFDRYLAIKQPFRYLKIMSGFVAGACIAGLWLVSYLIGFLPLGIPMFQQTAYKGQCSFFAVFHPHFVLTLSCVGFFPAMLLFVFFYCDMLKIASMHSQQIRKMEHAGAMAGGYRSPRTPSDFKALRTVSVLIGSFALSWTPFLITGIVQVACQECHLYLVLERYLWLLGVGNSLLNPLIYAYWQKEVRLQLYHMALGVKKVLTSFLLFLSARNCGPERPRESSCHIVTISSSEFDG
Format: cell-based
Description: The compounds of formula I according to the invention modulate the activity of the G-protein-coupled receptor GPR119. The effect of the compounds on the activation of GPR119 and on the stimulation of intracellular cAMP concentration is determined using the AlphaScreen cAMP Assay Kit (Cat. No. #6760625R) made by PerkinElmer.
MIN6 cells [Miyazaki J et al., Endocrinology. 1990 July; 127(1):126-32] are stably transfected with an expression vector for human GPR119 cDNA (Acc. No. NP_848566). Min-6/hGPR119 cells are cultured in DMEM, 10% FBS, 50 μM β-mercaptoethanol, 0.3 mg/mL Geniticin, 2 mM GlutaMAX at 37° C., 5% CO2. For the assay, the cells are seeded in Optiplates (white, 384-well, 160W-barcoded, TC, sterile with lid, Cat. No. #6007688 (Perkin Elmer); 10000 cells/well; 50 μL). The plates covered with lids are then incubated for 24 hours at 37° C., 5% CO2. After the medium is aspirated from the wells completely, 10 ill of the test compound are added, the compounds are diluted using stimulating buffer (140 mM NaCl, 3.6 mM KCl, 0.5 mM NaH2PO4, 0.5 mM MgSO4, 1.5 mM CaCl2, 10 mM Hepes, 5 mM NaHCO3; pH 7.4. 0.5 mM IBMX and 0.1% BSA, the final DMSO concentration is 1%). After 45 minutes incubation at room temperature (approx. 20° C.), the cAMP concentrations are determined using the AlphaScreen cAMP Assay Kit (Cat. No. #6760625R from PerkinElmer).

SMILES | pEC50
CS(=O)(=O)N1CC=C(c2cc3c(cn2)OC2(C3)CC3(CCN(c4ncc(C(F)(F)F)cn4)CC3)C2)CC1 [Example 32, 5-(1-Methanesulfonyl-1,2,3,6-tetrahydro-pyridin-4-yl)-1″-(5-trifluoromethyl-pyrimidin-2-yl)-dispiro[2,3-dihydrofuro[2,3-c]pyridine-2,1′-cyclobutane-3′,4″-piperidine]] | 8.22
CC(C)(C)OC(=O)N1CCC2(CC1)CC1(Cc3cc(-c4ccc(S(C)(=O)=O)cc4F)ncc3O1)C2 [Example 3, 5-(2-Fluoro-4-methylsulfonyl-phenyl)-1″-tert-butoxycarbonyl-dispiro[2,3-dihydrofuro[2,3-c]pyridine-2,1′-cyclobutane-3′,4″-piperidine]] | 7.82
CC(C)Oc1cnc(N2CCC3(CC2)CC2(Cc4cc(C5=CCN(S(C)(=O)=O)CC5)ncc4O2)C3)nc1 [Example 15, 1″-(5-Isopropoxy-pyrimidin-2-yl)-5-(1-methanesulfonyl-1,2,3,6-tetrahydro-pyridin-4-yl)-dispiro[2,3-dihydrofuro[2,3-c]pyridine-2,1′-cyclobutane-3′,4″-piperidine]] | 8.00
CCCc1nc(N2CCC3(CC2)CC2(Cc4cc(C5=CCN(S(C)(=O)=O)CC5)ncc4O2)C3)no1 [Example 26, 5-(1-Methanesulfonyl-1,2,3,6-tetrahydro-pyridin-4-yl)-1″-(3-n-propyl-[1,2,4]oxadiazol-3-yl)-dispiro[2,3-dihydrofuro[2,3-c]pyridine-2,1′-cyclobutane-3′,4″-piperidine]] | 8.10
CCNC(=O)c1ccc(-c2cc3c(cn2)OC2(C3)CC3(CCN(C(=O)OC(C)(C)C)CC3)C2)cc1 [Example 22, 5-(4-Ethylaminocarbonyl-phenyl)-1″-tert-butoxycarbonyl-dispiro[2,3-dihydrofuro[2,3-c]pyridine-2,1′-cyclobutane-3′,4″-piperidine]] | 7.55
CC(C)(C)OC(=O)N1CCC2(CC1)CC1(Cc3cc(N4CCN(S(C)(=O)=O)CC4)ncc3O1)C2 [Example 21, 5-(4-Methanesulfonyl-piperazin-1-yl)-1″-tert-butoxycarbonyl-dispiro[2,3-dihydrofuro[2,3-c]pyridine-2,1′-cyclobutane-3′,4″-piperidine]] | 7.11
CC(C)(C)OC(=O)N1CCC2(CC1)CC1(Cc3cc(-c4ccc(S(C)(=O)=O)cc4C#N)ncc3O1)C2 [Example 31, 5-(2-Cyano-4-methylsulfonyl-phenyl)-1″-tert-butoxycarbonyl-dispiro[2,3-dihydrofuro[2,3-c]pyridine-2,1′-cyclobutane-3′,4″-piperidine]] | 8.30
CC(C)(C)OC(=O)N1CCC2(CC1)CC1(Cc3cc(C4CCN(S(C)(=O)=O)CC4)ncc3O1)C2 [Example 19, 5-(1-Methanesulfonyl-piperidin-4-yl)-1″-tert-butoxycarbonyl-dispiro[2,3-dihydrofuro[2,3-c]pyridine-2,1′-cyclobutane-3′,4″-piperidine]] | 6.97
Cc1cnc(N2CCC3(CC2)CC2(Cc4cc(-c5ccc(S(C)(=O)=O)cc5)ncc4O2)C3)nc1 [Example 7, 1″-(5-Methyl-pyrimidin-2-yl)-5-(4-methylsulfonyl-phenyl)-dispiro[2,3-dihydrofuro[2,3-c]pyridine-2,1′-cyclobutane-3′,4″-piperidine]] | 7.38
CC(C)(C)OC(=O)N1CCC2(CC1)CC1(Cc3cc(-c4ccc(CS(C)(=O)=O)cc4)ncc3O1)C2 [Example 18, 5-(4-Methylsulfonylmethyl-phenyl)-1″-tert-butoxycarbonyl-dispiro[2,3-dihydrofuro[2,3-c]pyridine-2,1′-cyclobutane-3′,4″-piperidine]] | 7.62
CC(C)(C)OC(=O)N1CCC2(CC1)CC1(Cc3cc(-c4ccc(S(C)(=O)=O)cc4)ncc3O1)C2 [Example 1, 5-(4-Methylsulfonyl-phenyl)-1″-tert-butoxycarbonyl-dispiro[2,3-dihydrofuro[2,3-c]pyridine-2,1′-cyclobutane-3′,4″-piperidine]] | 7.68
CCCc1noc(N2CCC3(CC2)CC2(Cc4cc(C5=CCN(S(C)(=O)=O)CC5)ncc4O2)C3)n1 [Example 24, 5-(1-Methanesulfonyl-1,2,3,6-tetrahydro-pyridin-4-yl)-1″-(3-n-propyl-[1,2,4]oxadiazol-5-yl)-dispiro[2,3-dihydrofuro[2,3-c]pyridine-2,1′-cyclobutane-3′,4″-piperidine]] | 8.00
CCc1cnc(N2CCC3(CC2)CC2(Cc4cc(-c5ccc(S(C)(=O)=O)cc5)ncc4O2)C3)nc1 [Example 4, 1″-(5-Ethyl-pyrimidin-2-yl)-5-(4-methylsulfonyl-phenyl)-dispiro[2,3-dihydrofuro[2,3-c]pyridine-2,1′-cyclobutane-3′,4″-piperidine]] | 7.74
